Reference: patent US9155795B2, “CXCR4 receptor compounds” (Anchor Therapeutics, Inc., priority 2010, dated 2015)
Where a SMILES comes first, the peptide text is derived from it. [ ]: non-standard residue; d: D form. The star is where a group is joined. Palmitoyl = CCCCCCCCCCCCCCCC(=O)*; Hyp = O=C(O)[C@@H]1C[C@@H](O)CN1; Nle = CCCC[C@H](N)C(=O)O

Molecular target: T1, CXCR4 (Homo sapiens, UniProt P61073)
T1 construct: CCRF-CEM cells, a human T-cell ALL line that endogenously expresses CXCR4; endogenous in cells; host or cells: CCRF-CEM (human T-cell acute lymphoblastic leukemia line)
Assay: Calcium flux assay, agonist mode, Flexstation (CCRF-CEM cells)
Type: cell-based
Details: CCRF-CEM, percent of maximum response compared with SDF-1α, read-out: % Intrinsic Activity
Description: Calcium Flux Assay is one of the most popular cell-based GPCR functional assays. It most often uses calcium sensing fluorescent dyes such as fura2 AM, fluo-4 and Calcium-4 to measure changes in intracellular calcium concentration. It is used mainly to detect GPCR signaling via Gαq subunit. Activation of these Gq-coupled GPCRs leads to activation of phospholipase C, which subsequently leads to increase in inositol phosphate production. IP3 receptors on endoplasmic reticulum sense the change then release calcium into cytoplasm. Intracellular calcium binding to the fluorescent dyes can be detected by instruments that quantify fluorescent intensities, such as FLIPR Tetra, Flexstation (MDS) and FDSS (Hamamatsu). In addition, to assess Gq-couple receptor signaling, a calcium flux assay can also be used to study Gs and Gi couple receptors by co-expressing CNG (cyclic nucleotide gated calcium channel) or chimeric G-proteins (Gqi5, Gsi5 for example). Activation of some Gi-coupled receptors can also be detected by calcium flux assay via Gβγ mediated phospholipase C activation.
The calcium flux assay was used to assess the test compounds' ability to activate the CXCR4 receptor in CCRF-CEM cells (human T lymphoblasts from acute lymphoblastic leukemia). […] After dye loading by incubating with Calcium-4 dye at 37° C. for 1 hour, cell plates were read at 37° C. using the using the Flexstation 3 workstation. Receptor activation was assessed by measuring changes in fluorescent intensity after the addition of the test compounds or the reference agonist SDF-1α on the using the Flexstation 3 workstation. EC50
and percent intrinsic actively were derived from the data collected. Intrinsic activity refers to the efficacy of the test compound and is calculated as the percent of maximum response compared with the response of the reference standard (i.e., natural agonist, SDF-1α).

T1 sequence (P61073 whole entry): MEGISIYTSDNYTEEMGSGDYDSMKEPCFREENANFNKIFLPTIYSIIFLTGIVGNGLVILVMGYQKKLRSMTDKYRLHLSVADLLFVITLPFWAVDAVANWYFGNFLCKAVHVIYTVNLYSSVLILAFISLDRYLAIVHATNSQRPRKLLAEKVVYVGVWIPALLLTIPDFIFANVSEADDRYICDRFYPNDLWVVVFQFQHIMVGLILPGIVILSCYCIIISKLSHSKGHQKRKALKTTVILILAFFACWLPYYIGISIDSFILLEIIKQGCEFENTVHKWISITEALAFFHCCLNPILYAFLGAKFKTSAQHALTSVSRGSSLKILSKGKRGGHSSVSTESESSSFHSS

Row | Emax | Structure (SMILES)
1 | 104% | CCCCCCCCCCCCCCCC(=O)NCC(=O)NCC(=O)N[C@@H](Cc1ccc(O)cc1)C(=O)N[C@@H](CCC(N)=O)C(=O)N[C@@H](CCCCN)C(=O)N[C@@H](CCCCN)C(=O)N[C@H](CC(C)C)C(=O)N[C@@H](CCCNC(=N)N)C(=O)N[C@@H](CO)C(=O)N[C@@H](C)C(=O)N[C@H](C(=O)N[C@@H](CC(=O)O)C(=O)N[C@@H](CCCCN)C(=O)N[C@@H](Cc1ccc(O)cc1)C(=O)N[C@@H](CCCNC(=N)N)C(=O)N[C@@H](CC(C)C)C(N)=O)[C@@H](C)O [Compound 39] (Palmitoyl-GGYQKK[dL]RSATDKYRL-NH2; C-terminus assumed)
2 | 89.4% | CCCCCCCCCCCCCCCC(=O)NCC(=O)NCC(=O)N[C@@H](Cc1ccc(O)cc1)C(=O)N[C@@H](CCC(N)=O)C(=O)N[C@@H](CCCCN)C(=O)N[C@@H](CCCCN)C(=O)N[C@@H](CC(C)C)C(=O)N[C@@H](CCCNC(=N)N)C(=O)N1C[C@H](O)C[C@H]1C(=O)N[C@@H](Cc1c[nH]cn1)C(=O)N[C@H](C(=O)N[C@@H](CC(=O)O)C(=O)N[C@@H](CCCCN)C(=O)N[C@@H](Cc1ccc(O)cc1)C(=O)N[C@@H](CCCNC(=N)N)C(=O)N[C@@H](CC(C)C)C(N)=O)[C@@H](C)O [Compound 35] (Palmitoyl-GGYQKKLR[Hyp]HTDKYRL-NH2; C-terminus assumed)
3 | 89.4% | CCCCCCCCCCCCCCCC(=O)NCC(=O)NCC(=O)N[C@@H](Cc1ccc(O)cc1)C(=O)N[C@@H](CCC(N)=O)C(=O)N[C@@H](CCCCN)C(=O)N[C@@H](CCCCN)C(=O)N[C@@H](CC(C)C)C(=O)N[C@@H](CCCNC(=N)N)C(=O)N[C@@H](CO)C(=O)N[C@@H](C)C(=O)N[C@H](C(=O)N[C@@H](CC(=O)O)C(=O)N[C@@H](CCCCN)C(=O)N[C@@H](Cc1ccc(O)cc1)C(=O)N[C@@H](CCCNC(=N)N)C(=O)N[C@@H](CC(C)C)C(N)=O)[C@@H](C)O [Compound 25] (Palmitoyl-GGYQKKLRSATDKYRL-NH2; C-terminus assumed)

Further lines, the molecule ahead of its results:

Row | Structure (SMILES) | Emax
4 | CCCCCCCCCCCCCCCC(=O)N[C@@H](CCSC)C(=O)NCC(=O)N[C@@H](Cc1ccc(O)cc1)C(=O)N[C@@H](CCC(N)=O)C(=O)N[C@@H](CCCCN)C(=O)N[C@@H](CCCCN)C(=O)N[C@@H](CC(C)C)C(=O)N[C@@H](CCCNC(=N)N)C(=O)N[C@@H](CO)C(=O)N[C@@H](CCSC)C(=O)N[C@H](C(=O)N[C@@H](CC(=O)O)C(=O)N[C@@H](CCCCN)C(=O)N[C@@H](Cc1ccccc1)C(=O)N[C@@H](CCCNC(=N)N)C(=O)N[C@@H](CC(C)C)C(N)=O)[C@@H](C)O [Compound 15] (Palmitoyl-MGYQKKLRSMTDKFRL-NH2; C-terminus assumed) | 81.5%
5 | CCCCCCCCCCCCCCCC(=O)N[C@@H](COC)C(=O)NCC(=O)N[C@@H](Cc1ccc(O)cc1)C(=O)N[C@@H](CCC(N)=O)C(=O)N[C@@H](CCCCN)C(=O)N[C@@H](CCCCN)C(=O)N[C@@H](CC(C)C)C(=O)N[C@@H](CCCNC(=N)N)C(=O)N[C@@H](CO)C(=O)N[C@@H](COC)C(=O)N[C@H](C(=O)N[C@@H](CC(=O)O)C(=O)N[C@@H](CCCCN)C(=O)N[C@@H](Cc1ccc(O)cc1)C(=O)N[C@@H](CCCNC(=N)N)C(=O)N[C@@H](CC(C)C)C(N)=O)[C@@H](C)O [Compound 23] (Palmitoyl-S(Me)GYQKKLRSS(Me)TDKYRL-NH2) | 87.2%
6 | CCCCCCCCCCCCCCCC(=O)N[C@@H](CCSC)C(=O)NCC(=O)N[C@@H](Cc1ccc(O)cc1)C(=O)N[C@@H](CCC(N)=O)C(=O)N[C@@H](CCCCN)C(=O)N[C@@H](CCCCN)C(=O)N[C@@H](CC(C)C)C(=O)N[C@@H](CCCNC(=N)N)C(=O)N[C@@H](CO)C(=O)N[C@@H](CCSC)C(=O)N[C@H](C(=O)N[C@@H](CC(=O)O)C(=O)N[C@@H](CCCCN)C(=O)N[C@@H](Cc1ccc(O)cc1)C(=O)N[C@@H](CCCNC(=N)N)C(=O)N[C@@H](CCCC)C(N)=O)[C@@H](C)O [Compound 12] (Palmitoyl-MGYQKKLRSMTDKYR[Nle]-NH2; C-terminus assumed) | 73.2%
